Test results reported in patent US10858393B2, “Crystal of reduced glutathione and method for producing same” (KYOWA HAKKO BIO CO., LTD., priority 2016, dated 2020).
Read-outs that look alike come from different tables or passages of the source.

Columns and labels:
[1] = 100 g/L in water, hermetically sealed, 25° C. or 40° C., FIG. 1
Procedure: The vertical axis represents the peak area of L-cysteinyl-L-glycine with respect to the peak area of reduced glutathione which is taken as 100 in an HPLC analysis of the aqueous solution. […] In FIG. 1, the white circles indicate the results at 40° C., and the black lozenges indicate the results at 25° C.
An α-type crystal of reduced glutathione (manufactured by Kojin Co., Ltd.) was dissolved in water, and thereafter, the solution was adjusted to 100 g/L and hermetically sealed and placed in a thermostat bath at 25° C. or 40° C. while stirring. These reduced glutathione aqueous solutions were sampled over time and subjected to an HPLC analysis.

[2] = cited from earlier work

## N[C@@H](CCC(=O)N[C@@H](CS)C(=O)NCC(=O)O)C(=O)O [reduced glutathione, γ-L-glutamyl-L-cysteinyl-L-glycine]
[1]
  stability in aqueous solution (formation of L-cysteinyl-L-glycine over time, HPLC): decomposed over time in a temperature-dependent manner to produce L-cysteinyl-L-glycine
[2]; 10° C.
  saturation solubility in water: 83 mg/mL
[2]; 25° C.
  saturation solubility in water: 130 mg/mL
